In one assay the test system is c-Raf1 kinase. Kind of assay: Inhibition of the TNFα-dependent activation of c-Raf1 kinase (immunocomplex test with MEK and γ-32P-ATP). The class given is cell-based. To be noted: HeLa cells incubated 2 h with 2 μM polypeptide, stimulated 15 min with TNFα; FIG. 2. The source says: The detection of cell permeability mediated by CPP is shown by inhibition of the TNFα-dependent activation of c-Raf1 kinase. The activation of the c-Raf1 kinase is based on the interaction between the TNF receptor I (TNR-RI) and the adapter molecule Grb2. For this purpose, the SH3 domain of Grb2 interacts with a PLAP motive from the cytoplasmic domain of TNF-RI.
CPP is provided in the form of a fusion polypeptide. In this fusion polypeptide referred to as CPP-PLAP CPP, the amino acid sequence of FIG. 1 is present as N-terminus partner and a PLAP motive from the cytoplasmic domain of TNF-RI is present as C-terminus partner. A fusion polypeptide referred to as CPP-KLAP is also provided, which has a mutated PLAP motive.
HeLa cells are incubated for 2 h with 2 μM CPP-PLAP or CPP-KLAP (control) and stimulated for 15 min with 100 μ/ml TNFα. The activation of c-Raf1 kinase is determined by an immunocomplex test using MEK (Santa Cruz, Biotech) and y^32p-ATP as substrate (cf. FIG. 2).

For a further assay, the system named is 293 cells. The assay is described as follows: Cell permeability: detection of the protein in the cytosolic fraction of 293 cells by Western blot. The class given is cell-based. To be noted: 1 μM in medium, Western blot anti-hexa-His and anti-eGFP. On the procedure:
Detection of the cell permeability mediated by DHBV (duck hepatitis B virus)-CPP was made as follows: According to standard methods a fusion protein consisting of a hexa-His-Tag (6H), DHBV-CPP and eGFP (enhanced green fluorescent protein) was prepared in analogy to Example 1 in an E. coli expression system. The pQE vector system of the Quiagen company was used. This protein (DHBV42-53eGFP) was isolated. wt6HeGFP (fusion protein of 6 His and eGFP) was used for control experiments. Then, 293 cells were incubated in the presence of these proteins for 10 and 20 minutes. The proteins were added to the medium at a concentration of 1 μM. After 10 or 20 minutes, the cells were lyzed and the cytosolic fraction of the cells was isolated by ultracentrifugation.
The presence of DHBV42-53 eGFP in the cytosol fraction was detected by means of Western blot analysis using a hexa-His-tag-specific antibody (FIG. 6, lanes 1-4) (anti-hexa-His6 of Qiagen company) or an eGFP-specific antibody (anti-eGFP of Clontech company) (FIG. 6, lanes 5-8). A peroxidase-conjugated secondary antibody (anti-mouse HRP, anti-rabbit-HRP of Amersham company) was used for the detection.

Where no end group is shown, it is not given here.

As for “CPP-PLAP: fusion polypeptide: amino acid sequence of FIG. 1 as N-terminus partner, PLAP motive from cytoplasmic domain of TNF-RI as C-terminus partner (PLSSIFSRIGDPTTTKPLAPNPSF)”, the “inhibition of the TNFα-dependent activation of c-Raf1 kinase” value with c-Raf1 kinase is recorded as “fully inhibits”. As for “DHBV42-53-eGFP: fusion protein consisting of a hexa-His-Tag (6H), DHBV-CPP and eGFP (enhanced green fluorescent protein) (TIDHVLDHVQTM; not fully specified (C-terminus); also: fusion with hexa-His tag and eGFP, not in the chain)”, the “internalization of the protein into the cell (cytosol)” value with 293 cells (after 10 min) and with 293 cells (after 20 minutes) was “can be observed” each time.
